From PubChem BioAssay (NCI)
“And” between values parts separate entries of the source, which are not always exact repeats. Identical values can stand only once.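 Cells were grown in 96-well plates and exposed to each compound for 48 hours at five concentrations; endpoints were interpolated linearly between bracketing concentrations, or set to the highest concentration if not reached. GI50 = concentration required for 50% inhibition of growth. TGI marks complete inhibition of growth.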

What was measured:
Assay in all cases: DTP human tumour cell line panel, 48 h
786-0 renal = test system: 786-0 renal
SK-MEL-5 melanoma = test system: SK-MEL-5 melanoma
LOX IMVI melanoma = test system: LOX IMVI melanoma
SF-539 CNS = test system: SF-539 CNS
OVCAR-8 ovarian = test system: OVCAR-8 ovarian
CCRF-CEM leukemia = test system: CCRF-CEM leukemia
CAKI-1 renal = test system: CAKI-1 renal
HCT-116 colon = test system: HCT-116 colon
M14 melanoma = test system: M14 melanoma

| SMILES | TGI (786-0 renal) | TGI (SK-MEL-5 melanoma) | TGI (LOX IMVI melanoma) | TGI (SF-539 CNS) | TGI (OVCAR-8 ovarian) | TGI (CCRF-CEM leukemia) | TGI (CAKI-1 renal) | TGI (HCT-116 colon) | TGI (M14 melanoma) | GI50 (786-0 renal) | GI50 (LOX IMVI melanoma) | GI50 (SF-539 CNS) | GI50 (OVCAR-8 ovarian) | GI50 (CCRF-CEM leukemia) | GI50 (CAKI-1 renal) | GI50 (HCT-116 colon) | GI50 (M14 melanoma) | GI50 (SK-MEL-5 melanoma) |
| --- | --- | --- | --- | --- | --- | --- | --- | --- | --- | --- | --- | --- | --- | --- | --- | --- | --- | --- |
| COC(=O)/C=C/c1cc2c(cc1-c1c(C(=O)O)cc(OC)c(OC)c1OC)OCO2 | > 10 µM | > 10 µM | > 10 µM | > 10 µM | > 10 µM | > 10 µM | > 10 µM | > 10 µM | > 10 µM |  |  |  |  |  |  |  |  |  |
| C[N+]1=C(/C=C\C=C\c2ccccc2)C(C)(C)c2ccccc21 | 10.7 µM |  | 2.7 µM | 7.57 µM | 10.5 µM | 7.76 µM | 13.5 µM | 13.2 µM | 7.71 µM | 3.19 µM | 1.31 µM | 2.59 µM | 2.11 µM | 2.36 µM | 3.82 µM | 3.3 µM | 2.14 µM |  |
| CCOC(=O)c1[nH]c(COC(C)=O)c2c1CCCCCCCCCC2 | > 100 µM | > 100 µM | > 100 µM | > 100 µM | > 100 µM | > 100 µM | > 100 µM | > 100 µM | > 100 µM |  |  |  |  |  |  |  |  |  |
| NC(N)=NS(=O)(=O)c1ccc(Nc2c3ccccc3nc3c(C(=O)Nc4ccc(S(N)(=O)=O)cc4)cccc23)cc1 | > 100 µM | > 100 µM | > 100 µM | > 100 µM | > 100 µM | > 100 µM | > 100 µM | > 100 µM | > 100 µM |  |  |  |  |  |  |  |  |  |
| CCN1CCN(CC(=O)N2c3cccc4cccc(c34)N(C(=O)CN3CCN(CC)CC3)C2c2cn(-c3ccccc3)nc2-c2cccc([N+](=O)[O-])c2)CC1 | 3.17 µM | 3.21 µM | 3.11 µM | 2.94 µM | 5.01 µM | 3.51 µM | 2.9 µM | 2.83 µM | 3.46 µM | 1.66 µM | 1.62 µM | 1.56 µM | 2.06 µM | 1.15 µM | 1.4 µM | 1.27 µM | 1.69 µM | 1.75 µM |
| O=Cc1c(O)c(C(=O)Nc2ccc3[nH]c(=O)[nH]c3c2)cc2ccccc12 | > 100 µM | > 100 µM | > 100 µM | > 100 µM | > 100 µM | > 100 µM | > 100 µM | > 100 µM | > 100 µM |  |  |  |  |  |  |  |  |  |
| CC1(C)C2C=CC1C(=O)CC2 (stereo unspecified) | > 100 µM | > 100 µM | > 100 µM | > 100 µM | > 100 µM | > 100 µM | > 100 µM | > 100 µM | > 100 µM |  |  |  |  |  |  |  |  |  |
| Cc1cc(N2CCOCC2)cc2[nH]c(-c3c(NC[C@@H](O)c4cccc(Cl)c4)cc[nH]c3=O)nc12 | 4.02 µM | 11.3 µM | 2.19 µM | 4.85 µM | 14.7 µM | > 100 µM | 5.72 µM | 6.67 µM | 7.66 µM | 1.21 µM | 0.387 µM | 2.02 µM | 3.23 µM | 4.01 µM | 1.46 µM | 1.64 µM | 0.925 µM | 2.13 µM |
| O=C(O)C1CC(O)CN1 (stereo unspecified) | > 100 µM | > 100 µM | > 100 µM | > 100 µM | > 100 µM | > 100 µM | > 100 µM | > 100 µM | > 100 µM |  |  |  |  |  |  |  |  |  |
| Cc1cc(C)cc(NC(N)=S)c1 | > 100 µM | > 100 µM | 89.5 µM | > 100 µM | > 100 µM | 48 µM | > 100 µM | > 100 µM | > 100 µM |  |  |  |  |  |  |  |  |  |
| Cc1cc(Cl)ccc1NC(=O)CC1SC(=Nc2ccccc2Cl)NC1=O (stereo unspecified) | > 100 µM | > 100 µM |  | 55.3 µM | > 100 µM | > 100 µM | > 100 µM | > 100 µM | > 100 µM |  |  |  |  |  |  |  |  |  |
| Cc1cccc(NC(=O)c2cccc([N+](=O)[O-])c2O)c1C | > 100 µM | 27.6 µM | > 72.8 µM | 96.9 µM | > 100 µM | > 31.6 µM | > 100 µM | > 100 µM | > 100 µM |  |  |  |  |  |  |  |  |  |
| Cc1ccc(O)c(NC(=O)c2ccc(CNc3ccnc(C(F)(F)F)c3)cc2)c1 | 47.7 µM | 14.7 µM | 31.4 µM | 20.9 µM | > 100 µM | 17.7 µM | 40.6 µM | 37.4 µM | 24.2 µM | 5.2 µM | 5.64 µM | 4.16 µM | 15.9 µM | 0.496 µM | 6.33 µM | 13.7 µM | 5 µM | 4.07 µM |
| CN(Cc1cc(C(C)(C)C)cc(Br)c1O)Cc1cc(C(C)(C)C)cc(Br)c1O | 13.8 µM | 7.76 µM | 14.8 µM | 7.66 µM | 15.3 µM | 10.4 µM | 11.4 µM | 9.46 µM | 14.9 µM |  |  |  |  |  |  |  |  |  |
| COc1cc(Nc2ncc(F)c(Nc3ccc4c(n3)N(COP(=O)(O)O)C(=O)C(C)(C)O4)n2)cc(OC)c1OC | 6.53 µM and 2.86 µM | 33.3 µM and > 10 µM | 2.99 µM and 2.46 µM | 1.94 µM and 1.81 µM | 16.5 µM and > 10 µM | 44.8 µM and > 10 µM | 1.9 µM and > 10 µM | 23.5 µM and > 10 µM | 29.4 µM and > 10 µM | 1.32 µM and 0.858 µM | 1.38 µM and 1.09 µM | 0.605 µM and 0.454 µM | 3.33 µM and 3.07 µM | 3.09 µM and 3.84 µM | 0.456 µM and 0.645 µM | 3.25 µM and 3.02 µM | 2.71 µM and 2.88 µM | 5.51 µM and 3.54 µM |
| O=C(/C=C/c1ccc(C(F)(F)F)cc1)c1ccc(Nc2nc(NCCO)nc(Nc3ccc(Cl)cc3)n2)cc1 | 5.36 µM | 29.6 µM | 3.22 µM | 6.62 µM | 31.3 µM | 8.24 µM | 18.8 µM | 2.83 µM | 13.4 µM | 2.25 µM | 1.66 µM | 2.39 µM | 5.66 µM | 2.75 µM | 5.12 µM | 1.48 µM | 3.5 µM | 14 µM |
| Cc1ncc(C(=O)Nc2ccc(CN3CCN(C)CC3)c(C(F)(F)F)c2)cc1C#Cc1cnc(N)cc1C#N | 0.835 µM | 2.76 µM | 0.8 µM | 2.93 µM | 5.35 µM | 3.2 µM | 1.38 µM | 2.92 µM | 0.4 µM | 0.38 µM | 0.0709 µM | 0.542 µM | 1.3 µM | 0.549 µM | 0.154 µM | 0.182 µM | 0.049 µM | 0.711 µM |
| CCN(CC)c1ccc(C(=O)c2ccc(N(CC)CC)cc2)cc1 | 28.3 µM | 12.7 µM | 28.3 µM | 10.5 µM | > 38.9 µM | > 100 µM | > 36.7 µM | 13.6 µM | > 30.1 µM | 0.668 µM | 0.62 µM | 0.436 µM | 0.72 µM | 0.383 µM | 0.364 µM | 0.453 µM | 0.614 µM | 0.384 µM |
